{
  "source": "patent US20250333775A1",
  "about": "“DIAGNOSTIC TEST AND THERAPY FOR PATIENTS WITH AUTO-BREWERY SYNDROME” (The Regents of the University of California, priority 2024, published 2025)",
  "key": {"[1]": {"tested_on": "fecal microbiota from patients with clinically documented Auto-brewery Syndrome", "assay": "Bioreactor cultures of fecal microbiota, ethanol production (ABS patients)", "type": "cell-based, human", "conditions": "24 hours", "experimental": "(§1) 100 mg of stool collected from patients during flare and remission and from their household partners was cultured in bioreactor cultures which consisted of 10 mL of Luria Broth (LB) media supplemented with 2 mM glucose and 2 mM cysteine in anaerobic conditions using hungate tubes. This concentration of glucose was chosen to emulate physiologic glucose concentrations in the intestine. Bioreactor cultures were untreated or treated with 0.05% dimethyl sulfoxide (DMSO, vehicle), 10 μg/mL amphotericin B, or 100 μg/mL chloramphenicol. To emulate supraphysiologic concentrations of glucose in the GI tract, patient microbiota was also cultured in LB media supplemented with 100 mM and 200 mM of glucose anaerobically using hungate tubes. Samples were collected at 0, 6, and 24 hours of culturing and ethanol concentration was assessed by high-performance liquid chromatography (HPLC) using a 1260 Infinity IILC system (Agilent, Santa Clara, CA, USA) equipped with an HPX-87H (Biorad, Hercules, CA, USA) or by using an enzyme-based kit (Abcam, in less than 20% of samples, low limit of detection 50 ng/dL)."}, "[2]": {"tested_on": "fecal microbiota from household partners", "assay": "Bioreactor cultures of fecal microbiota, ethanol production (household partners)", "type": "cell-based, human", "conditions": "household partner samples, 24 hours; 10 μg/mL amphotericin B or 100 μg/mL chloramphenicol", "experimental": "as §1"}, "[3]": {"conditions": "samples from ABS patients, compared with DMSO vehicle control, 100 μg/mL chloramphenicol or 10 μg/mL amphotericin B"}},
  "data": [
    {"compound": "C[C@@H]1[C@H](O)[C@@H](C)/C=C/C=C/C=C/C=C/C=C/C=C/C=C/[C@H](O[C@@H]2O[C@H](C)[C@@H](O)[C@H](N)[C@@H]2O)C[C@@H]2O[C@](O)(C[C@@H](O)C[C@@H](O)[C@H](O)CC[C@@H](O)C[C@@H](O)CC(=O)O[C@H]1C)C[C@H](O)[C@H]2C(=O)O", "note": "[amphotericin B]", "values": [
      {"measurement": "ethanol production in bioreactor cultures", "setting": "[1]; [3]", "value": "did not have a significant effect"},
      {"measurement": "ethanol production in bioreactor cultures", "setting": "[1]; three ABS patient samples during a flare, 10 μg/mL amphotericin B", "value": "partially reduced"},
      {"measurement": "ethanol production in bioreactor cultures", "setting": "[2]", "value": "No significant difference"}
    ]},
    {"compound": "O=C(N[C@H](CO)[C@H](O)c1ccc([N+](=O)[O-])cc1)C(Cl)Cl", "note": "[chloramphenicol]", "values": [
      {"measurement": "ethanol production in bioreactor cultures", "setting": "[1]; [3]", "value": "significantly decreased"},
      {"measurement": "ethanol production in bioreactor cultures", "setting": "[2]", "value": "No significant difference"}
    ]}
  ]
}
